Laboratory results published in patent US10711004B2 (Genentech, Inc., priority 2018, dated 2020).
Where two headings read alike, the source gives them in different places.

Biological target: human TRPA1 channel (Homo sapiens (Human), UniProt O75762)
Assay: hTRPA1 CHO Ca2+ FLIPR Tetra assay, block of cinnamaldehyde induced calcium influx
Format: cell-based
Conditions: CHO cells expressing TRPA1, Hill coefficient fixed to 1.5
Summary of the method: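 IC50 values come from fixed-Hill fits of inhibition of cinnamaldehyde-induced (about EC50 level) calcium influx measured by FLIPR Tetra. Before agonist, TRPA1-expressing CHO cells loaded with calcium indicator were exposed to compound for 10 or 90 min at room temperature in HEPES-buffered HBSS, pH 7.4, with 0.02% BSA.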

[1] = read-out: hTRPA1 IC50 (10 min), compounds incubated 10 minutes at room temperature before cinnamaldehyde agonist
[2] = read-out: hTRPA1 IC50 (90 min), compounds incubated 90 minutes at room temperature before cinnamaldehyde agonist

Chain of human TRPA1 channel (O75762 whole entry): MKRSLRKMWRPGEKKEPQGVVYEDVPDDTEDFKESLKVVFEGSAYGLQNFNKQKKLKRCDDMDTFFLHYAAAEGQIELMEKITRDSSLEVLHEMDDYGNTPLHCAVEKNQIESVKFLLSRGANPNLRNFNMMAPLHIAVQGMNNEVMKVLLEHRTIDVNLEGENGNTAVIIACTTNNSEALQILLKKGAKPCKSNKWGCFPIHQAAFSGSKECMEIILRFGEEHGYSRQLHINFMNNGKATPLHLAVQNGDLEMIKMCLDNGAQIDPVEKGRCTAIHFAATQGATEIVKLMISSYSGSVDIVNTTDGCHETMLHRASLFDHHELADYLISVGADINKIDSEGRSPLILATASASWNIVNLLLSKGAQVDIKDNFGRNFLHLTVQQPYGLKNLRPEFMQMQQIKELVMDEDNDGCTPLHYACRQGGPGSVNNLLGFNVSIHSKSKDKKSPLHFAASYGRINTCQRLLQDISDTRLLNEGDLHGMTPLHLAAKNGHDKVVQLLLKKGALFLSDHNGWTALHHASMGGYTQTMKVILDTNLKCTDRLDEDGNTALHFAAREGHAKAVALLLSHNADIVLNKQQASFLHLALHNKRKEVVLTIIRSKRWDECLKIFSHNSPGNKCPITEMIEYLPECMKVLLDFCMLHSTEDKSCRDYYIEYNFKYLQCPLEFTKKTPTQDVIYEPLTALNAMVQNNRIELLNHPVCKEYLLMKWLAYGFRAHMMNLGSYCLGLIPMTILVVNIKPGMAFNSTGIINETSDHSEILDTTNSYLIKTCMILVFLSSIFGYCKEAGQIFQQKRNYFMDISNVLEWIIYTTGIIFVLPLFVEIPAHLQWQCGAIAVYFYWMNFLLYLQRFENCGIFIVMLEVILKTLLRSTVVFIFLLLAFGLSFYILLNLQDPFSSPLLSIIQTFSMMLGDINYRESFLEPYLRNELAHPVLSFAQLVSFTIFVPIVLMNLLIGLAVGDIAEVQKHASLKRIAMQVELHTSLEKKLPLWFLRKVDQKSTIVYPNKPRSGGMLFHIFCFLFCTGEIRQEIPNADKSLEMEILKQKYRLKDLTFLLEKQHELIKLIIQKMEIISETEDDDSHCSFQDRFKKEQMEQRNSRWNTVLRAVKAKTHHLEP

## CN(C)C(=O)CNc1nc2ncn(Cc3nc([C@H]4[C@@H]5C=C(c6ccccc6)C[C@@H]54)no3)c(=O)c2n1C [Example Compound 244, N,N-dimethyl-2-[[7-methyl-6-oxo-1-[[3-[(1S,5S,6R)-3-phenyl-6-bicyclo[3.1.0]hex-2-enyl]-1,2,4-oxadiazol-5-yl]methyl]purin-8-yl]amino]acetamide]
[1]
  IC50: 68.7 nM
[2]
  IC50: 26 nM

## Cn1c(NC2CCOCC2)nc2ncn(Cc3nc([C@H]4[C@@H]5C=C(c6ccccc6)C[C@@H]54)no3)c(=O)c21 [Example Compound 245, 7-methyl-1-[[3-[(1S,5S,6R)-3-phenyl-6-bicyclo[3.1.0]hex-2-enyl]-1,2,4-oxadiazol-5-yl]methyl]-8-(tetrahydropyran-4-ylamino)purin-6-one]
[1]
  IC50: 79.9 nM
[2]
  IC50: 43 nM

## CCNc1nc2ncn(Cc3nc([C@H]4[C@@H]5C=C(c6ccccc6)C[C@@H]54)no3)c(=O)c2n1C [Example Compound 246, 8-(ethylamino)-7-methyl-1-[[3-[(1S,5S,6R)-3-phenyl-6-bicyclo[3.1.0]hex-2-enyl]-1,2,4-oxadiazol-5-yl]methyl]purin-6-one]
[1]
  IC50: 53.9 nM
[2]
  IC50: 29 nM

## Cn1cnc2ncn(Cc3nc([C@H]4[C@@H]5CN(c6ccc(C#N)cc6F)C[C@@H]54)no3)c(=O)c21 [Example Compound 247, 3-fluoro-4-[(1S,5R)-6-[5-[(7-methyl-6-oxo-purin-1-yl)methyl]-1,2,4-oxadiazol-3-yl]-3-azabicyclo[3.1.0]hexan-3-yl]benzonitrile]
[1]
  IC50: 57.9 nM
[2]
  IC50: 23 nM

## Cn1cnc2ncn(Cc3nc([C@@H]4[C@H]5C=C(c6ccccc6)[C@@H](O)[C@H]54)no3)c(=O)c21 [Example Compound 250, 7-methyl-1-[[3-[(1R,4S,5R,6R)-4-hydroxy-3-phenyl-6-bicyclo[3.1.0]hex-2-enyl]-1,2,4-oxadiazol-5-yl]methyl]purin-6-one]
[1]
  IC50: 312 nM
[2]
  IC50: 40 nM

## Cn1cnc2ncn(Cc3nc([C@H]4[C@@H]5C=C(c6cc(F)c(F)c(F)c6)C[C@@H]54)no3)c(=O)c21 [Example Compound 251, 7-methyl-1-[[3-[(1S,5S,6R)-3-(3,4,5-trifluorophendyl)-6-bicyclo[3.1.0]hex-2-enyl]-1,2,4-oxadiazol-5-yl]methyl]purin-6-one]
[1]
  IC50: 14.9 nM
[2]
  IC50: 2 nM

## Cn1c(NCCO)nc2ncn(Cc3nc([C@H]4[C@@H]5C=C(c6ccccc6)C[C@@H]54)no3)c(=O)c21 [Example Compound 252, 8-(2-hydroxyethylamino)-7-methyl-1-[[3-[(1S,5S,6R)-3-phenyl-6-bicyclo[3.1.0]hex-2-enyl]-1,2,4-oxadiazol-5-yl]methyl]purin-6-one]
[1]
  IC50: 304 nM
[2]
  IC50: 68 nM

## Cc1cnn2ncn(Cc3nc([C@H]4C[C@](F)(c5cccc(Cl)c5)C4)no3)c(=O)c12 [Example Compound 253, 3-[[3-[trans-3-(3-chlorophenyl)-3-fluoro-cyclobutyl]-1,2,4-oxadiazol-5-yl]methyl]-5-methyl-pyrazolo[5,1-f][1,2,4]triazin-4-one]
[1]
  IC50: 43.5 nM
[2]
  IC50: 31 nM

## Cn1cnc2ncn(Cc3nc([C@@H]4[C@H]5C=C(c6cccc(F)c6F)C[C@H]54)no3)c(=O)c21 [Example Compound 254, 7-methyl-1-[[3-[(1R,5R,6S)-3-(2,3-difluorophenyl)-6-bicyclo[3.1.0]hex-2-enyl]-1,2,4-oxadiazol-5-yl]methyl]purin-6-one]
read-out: hTRPA1 IC50 (10 min), compounds incubated 10 minutes at room temperature before cinnamaldehyde agonist, listed as 254
  IC50: 12.3 nM
read-out: hTRPA1 IC50 (90 min), compounds incubated 90 minutes at room temperature before cinnamaldehyde agonist, listed as 254
  IC50: 2.1 nM

## Cn1c(N)nc2ncn(Cc3nc([C@H]4[C@@H]5C=C(c6ccccc6)C[C@@H]54)no3)c(=O)c21 [Example Compound 255, 8-amino-7-methyl-1-[[3-[(1S,5S,6R)-3-phenyl-6-bicyclo[3.1.0]hex-2-enyl]-1,2,4-oxadiazol-5-yl]methyl]purin-6-one]
[1]
  IC50: 33.3 nM
[2]
  IC50: 3.8 nM

## Cn1cnc2ncn(Cc3nc([C@H]4[C@@H]5C=C(c6ccc(C#N)cc6)C[C@@H]54)no3)c(=O)c21 [Example Compound 256, 4-[(1S,5S,6R)-6-[5-[(7-methyl-6-oxo-purin-1-yl)methyl]-1,2,4-oxadiazol-3-yl]-3-bicyclo[3.1.0]hex-2-enyl]benzonitrile]
[1]
  IC50: 21.7 nM
[2]
  IC50: 6.6 nM

## Cn1cnc2ncn(Cc3nc([C@H]4C[C@H](Cc5cccc(Cl)c5)C4)no3)c(=O)c21 [Example Compound 257, 1-[[3-[trans-3-[(3-chlorophenyl)methyl]cyclobutyl]-1,2,4-oxadiazol-5-yl]methyl]-7-methyl-purin-6-one]
[1]
  IC50: 16.6 nM
[2]
  IC50: 19 nM

## Cn1cnc2ncn(Cc3nc([C@H]4[C@@H]5CN(c6cc(F)c(C#N)c(F)c6)C[C@@H]54)no3)c(=O)c21 [Example Compound 258, 2,6-difluoro-4-[(1S,5R)-6-[5-[(7-methyl-6-oxo-purin-1-yl)methyl]-1,2,4-oxadiazol-3-yl]-3-azabicyclo[3.1.0]hexan-3-yl]benzonitrile]
[1]
  IC50: 78.2 nM
[2]
  IC50: 18 nM

## Cn1cnc2nnn(Cc3nc([C@H]4[C@@H]5C=C(c6ccccc6)C[C@@H]54)no3)c(=O)c21 [Example Compound 259, 5-methyl-3-[[3-[(1S,5S,6R)-3-phenyl-6-bicyclo[3.1.0]hex-2-enyl]-1,2,4-oxadiazol-5-yl]methyl]imidazo[4,5-d]triazin-4-one]
[1]
  IC50: 25.1 nM
[2]
  IC50: 16 nM

## COCCNc1nc2ncn(Cc3nc([C@@H]4[C@H]5C=C(c6ccccc6)C[C@H]54)no3)c(=O)c2n1C [Example Compound 260, 8-(2-methoxyethylamino)-7-methyl-1-[[3-[(1R,5R,6S)-3-phenyl-6-bicyclo[3.1.0]hex-2-enyl]-1,2,4-oxadiazol-5-yl]methyl]purin-6-one]
[1]
  IC50: 42.6 nM
[2]
  IC50: 35 nM

## Nc1ccc2c(=O)n(Cc3nc([C@H]4[C@@H]5CN(c6cccc(F)c6)C[C@@H]54)no3)cnc2n1 [Example Compound 261, 7-amino-3-[[3-[(1R,5S)-3-(3-fluorophenyl)-3-azabicyclo[3.1.0]hexan-6-yl]-1,2,4-oxadiazol-5-yl]methyl]pyrido[2,3-d]pyrimidin-4-one]
[1]
  IC50: 9.73 nM
[2]
  IC50: 4.3 nM

## CNc1nc2ncn(Cc3nc([C@@H]4[C@H]5C=C(c6ccccc6)C[C@H]54)no3)c(=O)c2n1C [Example Compound 262, 7-methyl-8-(methylamino)-1-[[3-[(1R,5R,6S)-3-phenyl-6-bicyclo[3.1.0]hex-2-enyl]-1,2,4-oxadiazol-5-yl]methyl]purin-6-one]
[1]
  IC50: 33.5 nM
[2]
  IC50: 14 nM

## Cn1c(Cl)nc2ncn(Cc3nc([C@@H]4[C@H]5C=C(c6ccccc6)C[C@H]54)no3)c(=O)c21 [Example Compound 263, 8-chloro-7-methyl-1-[[3-[(1R,5R,6S)-3-phenyl-6-bicyclo[3.1.0]hex-2-enyl]-1,2,4-oxadiazol-5-yl]methyl]purin-6-one]
[1]
  IC50: 15.8 nM
[2]
  IC50: 6.5 nM

## Cn1cnc2ncn(Cc3nc([C@@H]4[C@H]5C=C(c6ccc7c(cnn7C)c6)C[C@H]54)no3)c(=O)c21 [Example Compound 264, 7-methyl-1-[[3-[(1R,5R,6S)-3-(1-methylindazol-5-yl)-6-bicyclo[3.1.0]hex-2-enyl]-1,2,4-oxadiazol-5-yl]methyl]purin-6-one]
[1]
  IC50: 29 nM
[2]
  IC50: 14 nM

## Cn1c(=O)ccc2ncn(Cc3nc([C@@H]4[C@H]5C=C(c6ccccc6)C[C@H]54)no3)c(=O)c21 [Example Compound 265, 5-methyl-3-[[3-[(1R,5R,6S)-3-phenyl-6-bicyclo[3.1.0]hex-2-enyl]-1,2,4-oxadiazol-5-yl]methyl]pyrido[3,2-d]pyrimidine-3,6-dione]
[1]
  IC50: 16.1 nM
[2]
  IC50: 12 nM

## N#Cc1ccc2c(=O)n(Cc3nc([C@@H]4[C@H]5C=C(c6ccccc6)C[C@H]54)no3)cnc2n1 [Example Compound 266, 4-oxo-3-[[3-[(1R,5R,6S)-3-phenyl-6-bicyclo[3.1.0]hex-2-enyl]-1,2,4-oxadiazol-5-yl]methyl]pyrido[2,3-d]pyrimidine-7-carbonitrile]
[1]
  IC50: 54.6 nM
[2]
  IC50: 39 nM

## Cn1cnc2ncn(Cc3nc([C@H]4[C@@H]5C=C(c6ccc7[nH]ncc7c6)C[C@@H]54)no3)c(=O)c21 [Example Compound 268, 7-methyl-1-[[3-[(1S,5S,6R)-3-(1H-indazol-5-yl)-6-bicyclo[3.1.0]hex-2-enyl]-1,2,4-oxadiazol-5-yl]methyl]purin-6-one]
[1]
  IC50: 20 nM
[2]
  IC50: 12 nM

## Cn1cnc2ncn(Cc3nc([C@H]4[C@@H]5C=C(c6ccc(F)cc6F)C[C@@H]54)no3)c(=O)c21 [Example Compound 269, 7-methyl-1-[[3-[(1S,5S,6R)-3-(2,4-difluorophenyl)-6-bicyclo[3.1.0]hex-2-enyl]-1,2,4-oxadiazol-5-yl]methyl]purin-6-one]
[1]
  IC50: 6.96 nM
[2]
  IC50: 4.6 nM

## Cn1cnc2ncn(Cc3nc([C@H]4[C@@H]5C=C(c6cc(F)cc(F)c6)C[C@@H]54)no3)c(=O)c21 [Example Compound 270, 7-methyl-1-[[3-[(1S,5S,6R)-3-(3,5-difluorophenyl)-6-bicyclo[3.1.0]hex-2-enyl]-1,2,4-oxadiazol-5-yl]methyl]purin-6-one]
[1]
  IC50: 13 nM
[2]
  IC50: 2.4 nM

## Cn1cnc2ncn(Cc3nc([C@H]4[C@@H]5CN(c6cc(F)c(Cl)c(F)c6)C[C@@H]54)no3)c(=O)c21 [Example Compound 271, 7-methyl-1-[[3-[(1S,5R)-3-(4-chloro-3,5-difluoro-phenyl)-3-azabicyclo[3.1.0]hexan-6-yl]-1,2,4-oxadiazol-5-yl]methyl]purin-6-one]
[1]
  IC50: 34.7 nM
[2]
  IC50: 11 nM
